#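 How tested: cells in 96-well plates exposed to compound for 48 hours at five concentrations. GI50 marks 50% less growth.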 The source made the active and inactive calls. Rule as the data show it: active = GI50 up to about 1.1 µM and inactive = higher.
# Tests used:
# Assay in all cases: inhibition of tumour cell growth, NCI panel, 48 h
# Hs-578T = system: Hs-578T
# MOLT-4 = system: MOLT-4
# TK-10 = system: TK-10
# SF-295 = system: SF-295
# CCRF-CEM = system: CCRF-CEM
# OVCAR-8 = system: OVCAR-8
# IGROV-1 = system: IGROV-1
# KM12 = system: KM12
# ACHN = system: ACHN
# HOP-62 = system: HOP-62
# OVCAR-3 = system: OVCAR-3
# A549 = system: A549
# UACC-257 = system: UACC-257
# SK-MEL-2 = system: SK-MEL-2
# OVCAR-4 = system: OVCAR-4
# OVCAR-5 = system: OVCAR-5
# MDA-N = system: MDA-N
# HCT-15 = system: HCT-15
# MCF7 = system: MCF7
# Malme-3M = system: Malme-3M
# RPMI-8226 = system: RPMI-8226
# UO-31 = system: UO-31
# HCT-116 = system: HCT-116
# K562 = system: K562
# MDA-MB-435 = system: MDA-MB-435
# A498 = system: A498
# SN12C = system: SN12C
# U-251 = system: U-251
# SW-620 = system: SW-620
# SF-268 = system: SF-268
# CAKI-1 = system: CAKI-1
# NCI-H226 = system: NCI-H226
# LOX IMVI = system: LOX IMVI
# RXF 393 = system: RXF 393
# HT-29 = system: HT-29
# 786-0 = system: 786-0
# UACC-62 = system: UACC-62
# T47D = system: T47D
# SR = system: SR
# HL-60 = system: HL-60
# COLO 205 = system: COLO 205
# SF-539 = system: SF-539
# M14 = system: M14
# HCC 2998 = system: HCC 2998
# NCI-H460 = system: NCI-H460
# HOP-92 = system: HOP-92
# SK-MEL-28 = system: SK-MEL-28
# NCI-H522 = system: NCI-H522
# SK-OV-3 = system: SK-OV-3
# NCI-H23 = system: NCI-H23
# DU-145 = system: DU-145
# SK-MEL-5 = system: SK-MEL-5
# SNB-19 = system: SNB-19
# BT-549 = system: BT-549
# PC-3 = system: PC-3
# EKVX = system: EKVX
# MDA-MB-231 = system: MDA-MB-231
# NCI/ADR-RES = system: NCI/ADR-RES
# SNB-75 = system: SNB-75
smiles,measurement,setting,value
Cn1ncc(NCCn2cnc3c2c(=O)n(C)c(=O)n3C)c(Cl)c1=O,GI50,Hs-578T,> 100 µM (inactive)
same,GI50,MOLT-4,> 100 µM (inactive)
same,GI50,TK-10,> 100 µM (inactive)
same,GI50,SF-295,> 100 µM (inactive)
same,GI50,CCRF-CEM,> 100 µM (inactive)
same,GI50,OVCAR-8,> 100 µM (inactive)
same,GI50,IGROV-1,> 100 µM (inactive)
same,GI50,KM12,> 100 µM (inactive)
same,GI50,ACHN,> 100 µM (inactive)
same,GI50,HOP-62,> 100 µM (inactive)
same,GI50,OVCAR-3,> 100 µM (inactive)
same,GI50,A549,> 100 µM (inactive)
same,GI50,UACC-257,> 100 µM (inactive)
same,GI50,SK-MEL-2,> 100 µM (inactive)
same,GI50,OVCAR-4,> 100 µM (inactive)
same,GI50,OVCAR-5,> 100 µM (inactive)
same,GI50,MDA-N,> 100 µM (inactive)
same,GI50,HCT-15,> 100 µM
same,GI50,MCF7,> 100 µM (inactive)
same,GI50,Malme-3M,> 100 µM (inactive)
same,GI50,RPMI-8226,> 100 µM (inactive)
same,GI50,UO-31,> 100 µM (inactive)
same,GI50,HCT-116,> 100 µM (inactive)
same,GI50,K562,> 100 µM (inactive)
same,GI50,MDA-MB-435,> 100 µM (inactive)
same,GI50,A498,> 100 µM (inactive)
same,GI50,SN12C,> 100 µM (inactive)
same,GI50,U-251,> 100 µM (inactive)
same,GI50,SW-620,> 100 µM (inactive)
same,GI50,SF-268,> 100 µM (inactive)
same,GI50,CAKI-1,> 100 µM (inactive)
same,GI50,NCI-H226,> 100 µM (inactive)
same,GI50,LOX IMVI,> 100 µM (inactive)
same,GI50,RXF 393,> 100 µM (inactive)
same,GI50,HT-29,> 100 µM (inactive)
same,GI50,786-0,> 100 µM (inactive)
same,GI50,UACC-62,> 100 µM (inactive)
same,GI50,T47D,> 100 µM (inactive)
same,GI50,SR,> 100 µM (inactive)
same,GI50,HL-60,> 100 µM (inactive)
same,GI50,COLO 205,> 100 µM (inactive)
same,GI50,SF-539,> 100 µM (inactive)
same,GI50,M14,> 100 µM (inactive)
same,GI50,HCC 2998,> 100 µM (inactive)
same,GI50,NCI-H460,> 100 µM (inactive)
same,GI50,HOP-92,> 100 µM (inactive)
same,GI50,SK-MEL-28,> 100 µM (inactive)
same,GI50,NCI-H522,> 100 µM (inactive)
same,GI50,SK-OV-3,> 100 µM (inactive)
same,GI50,NCI-H23,> 100 µM (inactive)
same,GI50,DU-145,> 100 µM (inactive)
same,GI50,SK-MEL-5,> 100 µM (inactive)
same,GI50,SNB-19,> 100 µM (inactive)
same,GI50,BT-549,> 100 µM (inactive)
same,GI50,PC-3,> 100 µM (inactive)
same,GI50,EKVX,> 100 µM (inactive)
same,GI50,MDA-MB-231,> 100 µM (inactive)
same,GI50,NCI/ADR-RES,> 100 µM (inactive)
CCOC(=O)c1nc2cc(N3CCOCC3)c(F)cc2[nH]c1=O,GI50,Hs-578T,33.4 µM (inactive)
same,GI50,MOLT-4,> 100 µM (inactive)
same,GI50,TK-10,> 100 µM (inactive)
same,GI50,SF-295,83.4 µM (inactive)
same,GI50,CCRF-CEM,91.8 µM (inactive)
same,GI50,SNB-75,52 µM (inactive)
same,GI50,OVCAR-8,86.9 µM (inactive)
same,GI50,IGROV-1,39 µM (inactive)
same,GI50,KM12,> 100 µM (inactive)
same,GI50,ACHN,> 100 µM (inactive)
same,GI50,HOP-62,57.5 µM (inactive)
same,GI50,OVCAR-3,> 100 µM (inactive)
same,GI50,A549,> 100 µM (inactive)
same,GI50,UACC-257,> 100 µM (inactive)
same,GI50,SK-MEL-2,> 100 µM (inactive)
same,GI50,OVCAR-4,> 100 µM (inactive)
same,GI50,OVCAR-5,64.3 µM (inactive)
same,GI50,MDA-N,> 100 µM (inactive)
same,GI50,HCT-15,> 100 µM
same,GI50,MCF7,> 100 µM (inactive)
same,GI50,Malme-3M,> 100 µM (inactive)
same,GI50,RPMI-8226,> 100 µM (inactive)
same,GI50,UO-31,35.2 µM (inactive)
same,GI50,HCT-116,> 100 µM (inactive)
same,GI50,K562,> 100 µM (inactive)
same,GI50,MDA-MB-435,> 100 µM (inactive)
same,GI50,A498,> 100 µM (inactive)
same,GI50,SN12C,> 100 µM (inactive)
same,GI50,U-251,> 100 µM (inactive)
same,GI50,SW-620,> 100 µM (inactive)
same,GI50,SF-268,> 100 µM (inactive)
same,GI50,CAKI-1,> 100 µM (inactive)
same,GI50,NCI-H226,20.3 µM (inactive)
same,GI50,RXF 393,> 100 µM (inactive)
same,GI50,HT-29,69.8 µM (inactive)
same,GI50,786-0,> 100 µM (inactive)
same,GI50,UACC-62,92.9 µM (inactive)
same,GI50,T47D,> 100 µM (inactive)
same,GI50,SR,54.2 µM (inactive)
same,GI50,HL-60,19.8 µM (inactive)
same,GI50,COLO 205,> 100 µM (inactive)
same,GI50,SF-539,> 100 µM (inactive)
same,GI50,M14,> 100 µM (inactive)
same,GI50,HCC 2998,> 100 µM (inactive)
same,GI50,NCI-H460,> 100 µM (inactive)
same,GI50,HOP-92,37.9 µM (inactive)
same,GI50,SK-MEL-28,> 100 µM (inactive)
same,GI50,NCI-H522,67.9 µM (inactive)
same,GI50,SK-OV-3,> 100 µM (inactive)
same,GI50,NCI-H23,> 100 µM (inactive)
same,GI50,DU-145,> 100 µM (inactive)
same,GI50,SK-MEL-5,> 100 µM (inactive)
same,GI50,SNB-19,> 100 µM (inactive)
same,GI50,BT-549,> 100 µM (inactive)
same,GI50,PC-3,> 100 µM (inactive)
same,GI50,EKVX,4.67 µM (inactive)
same,GI50,MDA-MB-231,> 100 µM (inactive)
same,GI50,NCI/ADR-RES,> 100 µM (inactive)

# From ChEMBL document CHEMBL1201862, “PubChem BioAssay data set” (2004)
